Measured values from patent publication US12686692B2, “KRas G12D inhibitors” (Mirati Therapeutics, Inc., priority 2020, dated 2026).

Tests used:
[1] = target: T1, KRas G12D (Homo sapiens, UniProt P01116, G12D); assay: KRas G12D Surface Plasmon Resonance (SPR) Binding Assay; details: Biacore T200, biotinylated Avidin-tagged KRAS protein on SA chip, 20 C, 1:1 binding model
Method: This Example illustrates that exemplary compounds of the present invention bind to KRas G12D as measured by surface plasmon resonance (SPR). Briefly, 1 L of 1.05×HBS-Mg buffer (262.5 mM BioUltra Hepes, pH 7.5, 157.5 mM NaCl, 105 mM MgCl2, 0.525 mM TCEP, […] Brij-35) was prepared and filter sterilized using a 0.22 μm bottle top filter. Approximately 50 mL of 1.05×HBS-Mg buffer was removed and saved for future dilutions. A 50 mL aliquot of DMSO (Sigma Aldrich DMSO Lot. #SHBK2079) was added and continued to stir for 10 minutes, creating the final 1.0×HBS-Mg buffer (250 mM BioUltra Hepes pH 7.5, 150 mM NaCl, 100 mM MgCl2, 0.5 mM TCEP, 0.03% Brij-35). Biacore T200 instrument was primed using 1.0×HBS-Mg buffer before docking a GE Streptavidin (SA) chip and then primed two additional times prior to beginning the immobilization step. All immobilized protein mixtures were created using 3-5 mg/mL Biotinylated Avidin-tagged KRAS protein using the following immobilization settings: SA chip type, 1 flow cells per cycle, 720 second contact time, and 5 μL/min flow rate. Normalization of the detector was also performed during the immobilization step using the GE BiaNormalize solution. All compounds were diluted to 10 mM in 100% DMSO prior to being diluted 20× in 1.05× buffer. Another 10× dilution was created using 1.0× buffer prior to performing a series of 3× dilutions to create a compound concentration curve using the following assay settings: 20 C analysis temperature, General Settings=10 Hz data collection rate and multi-detection; Assay Steps=all set to LMW kinetics; Cycle Types=LMW kinetics (60s contact time, 120s dissociation time, 100 μL/min flow rate, extra wash after injection with 50% DMSO, flow path 1,2,3,4); Flow path detection=2-1, 4-3). Data evaluation was performed using the Biacore T200 Evaluation software and data fit to 1:1 binding model.
Target sequence in this assay (P01116 1-188 isoform P01116-2 G12D): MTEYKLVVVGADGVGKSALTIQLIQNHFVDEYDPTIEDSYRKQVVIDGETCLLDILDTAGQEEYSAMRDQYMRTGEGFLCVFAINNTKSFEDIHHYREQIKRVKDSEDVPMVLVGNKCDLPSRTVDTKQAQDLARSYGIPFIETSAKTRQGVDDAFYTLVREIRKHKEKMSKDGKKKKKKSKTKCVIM

[2] = system: KRas G12D-mediated Phosphorylation of ERK; assay: Inhibition of KRas G12D-mediated Phosphorylation of ERK in AGS cells; type: cell-based; details: Homo sapiens; AGS cells expressing G12D, 3 hours, phospho-ERK normalized to GAPDH
How it was run: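 AGS cells (endogenous KRas G12D) were treated with compounds for 3 h in 0.5% DMSO, then fixed, permeabilized and immunostained. The phospho-ERK (Thr202/Tyr204) signal was normalized to GAPDH in-cell by infrared detection and expressed as % of DMSO control. IC50 came from a 4-parameter fit.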

[3] = target: T1, KRas G12D; assay: KRas G12D Binding Assay (TR-FRET displacement of labeled tracer); design: corresponding to amino acids 1:169, produced at Array BioPharma; biotin (protein is biotinylated); details: TR-FRET displacement of Cy5 labelled tracer, biotinylated GDP-loaded KRAS G12D (aa 1:169), 60 minute incubation at 22° C.
How it was run: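 Biotinylated GDP-loaded human KRAS G12D (aa 1–169) incubated with Cy5 tracer, Eu-streptavidin and compound (2% DMSO final) in 50 mM HEPES pH 7.5, 5 mM MgCl2, 0.005% Tween-20, 1 mM DTT, 60 min at 22 °C. TR-FRET ratio converted to percent of control; IC50 at 50 POC from 4-parameter logistic fit.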
Target sequence in this assay (P01116 1-169 isoform P01116-2 G12D): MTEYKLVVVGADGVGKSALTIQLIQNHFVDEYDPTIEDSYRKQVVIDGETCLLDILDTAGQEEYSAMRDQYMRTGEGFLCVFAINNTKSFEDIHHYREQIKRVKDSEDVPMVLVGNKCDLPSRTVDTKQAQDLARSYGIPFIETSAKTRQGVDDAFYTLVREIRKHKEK

FC(F)(F)c1c(Cl)cccc1N1CCc2c(nc(OCC34CCCN3CCC4)nc2N2C[C@H]3CC[C@@H](C2)N3)C1 [Example 63, 4-((1R,5S)-3,8-diazabicyclo[3.2.1]octan-3-yl)-7-(3-chloro-2-(trifluoromethyl)phenyl)-2-((tetrahydro-1H-pyrrolizin-7a(5H)-yl)methoxy)-5,6,7,8-tetrahydropyrido[3,4-d]pyrimidine]
Kd [1]: 0.0123 µM | IC50 [2]: 6.58 µM | IC50 [3]: 0.0051 µM

CN1CCC[C@H]1COc1nc2c(c(N3C[C@H]4CC[C@@H](C3)N4)n1)CCN(c1cncc3cccc(Cl)c13)C2 [Example 58, 4-((1R,5S)-3,8-diazabicyclo[3.2.1]octan-3-yl)-7-(5-chloroisoquinolin-4-yl)-2-(((S)-1-methylpyrrolidin-2-yl)methoxy)-5,6,7,8-tetrahydropyrido[3,4-d]pyrimidine]
Kd [1]: 0.438 µM | IC50 [2]: > 16.7 µM | IC50 [3]: 0.283 µM

CN1CCC[C@H]1COc1nc2c(c(N3C[C@H]4CC[C@@H](C3)N4)n1)CCN(c1cccc3ccc(F)cc13)C2 [Example 72, 4-((1R,5S)-3,8-diazabicyclo[3.2.1]octan-3-yl)-7-(7-fluoronaphthalen-1-yl)-2-(((S)-1-methylpyrrolidin-2-yl)methoxy)-5,6,7,8-tetrahydropyrido[3,4-d]pyrimidine]
Kd [1]: 0.923 µM | IC50 [2]: > 16.7 µM | IC50 [3]: 0.226 µM

C[C@@H]1CC2CN(c3nc(OC[C@@H]4CCCN4C)nc4c3CCN(c3cccc5cccc(Cl)c35)C4)C[C@H]1N2 (single isomer, unassigned) [Example 87]
Kd [1]: 0.705 µM | IC50 [2]: 13.4 µM | IC50 [3]: 0.271 µM

CN1CCC[C@H]1COc1nc2c(c(N3C[C@H]4CC[C@@H](C3)N4)n1)CCN(c1c(F)ccc(F)c1C(F)F)C2 [Example 76, 4-((1R,5S)-3,8-diazabicyclo[3.2.1]octan-3-yl)-7-(2-(difluoromethyl)-3,6-difluorophenyl)-2-(((S)-1-methylpyrrolidin-2-yl)methoxy)-5,6,7,8-tetrahydropyrido[3,4-d]pyrimidine]
Kd [1]: 97 µM | IC50 [2]: > 16.7 µM | IC50 [3]: > 10 µM

Clc1cccc2cncc(N3CCc4c(nc(OCC56CCCN5CCC6)nc4N4C[C@H]5CC[C@@H](C4)N5)C3)c12 [Example 30, 4-((1R,5S)-3,8-diazabicyclo[3.2.1]octan-3-yl)-7-(5-chloroisoquinolin-4-yl)-2-((tetrahydro-1H-pyrrolizin-7a(5H)-yl)methoxy)-5,6,7,8-tetrahydropyrido[3,4-d]pyrimidine]
Kd [1]: 0.0871 µM | IC50 [2]: 2.61 µM | IC50 [3]: 0.0168 µM

CN1CCC[C@H]1COc1nc2c(c(N3CC4CCC(C)(C3)N4)n1)CCN(c1cc(O)cc3ccccc13)C2 (stereo partly drawn) [Example 61, 4-(4-(1-methyl-3,8-diazabicyclo[3.2.1]octan-3-yl)-2-(((S)-1-methylpyrrolidin-2-yl)methoxy)-5,8-dihydropyrido[3,4-d]pyrimidin-7(6H)-yl)naphthalen-2-ol]
Kd [1]: 0.176 µM | IC50 [2]: 6.88 µM | IC50 [3]: 0.184 µM

Cc1cccc2cccc(N3CCc4c(nc(OC[C@@H]5CCCN5C)nc4N4C[C@H]5CC[C@@H](C4)N5)C3)c12 [Example 52, 4-((1R,5S)-3,8-diazabicyclo[3.2.1]octan-3-yl)-7-(8-methylnaphthalen-1-yl)-2-(((S)-1-methylpyrrolidin-2-yl)methoxy)-5,6,7,8-tetrahydropyrido[3,4-d]pyrimidine]
Kd [1]: 250 µM | IC50 [2]: 14.9 µM | IC50 [3]: 0.361 µM

O[C@@H]1C[C@@H]2CN(c3nc(OCC45CCCN4CC(F)C5)nc4c3CCN(c3cccc5cccc(Cl)c35)C4)C[C@H]1N2 (mixture of isomers) [Example 45, (1R,5R,6R)-3-(7-(8-chloronaphthalen-1-yl)-2-((2-fluorotetrahydro-1H-pyrrolizin-7a(5H)-yl)methoxy)-5,6,7,8-tetrahydropyrido[3,4-d]pyrimidin-4-yl)-3,8-diazabicyclo[3.2.1]octan-6-ol]
Kd [1]: 0.0019 µM | IC50 [2]: 1.36 µM | IC50 [3]: 0.0026 µM

CO[C@@H]1C[C@@H]2CN(c3nc(OC[C@@H]4CCCN4C)nc4c3CCN(c3cc(O)cc5ccccc35)C4)C[C@H]1N2 [Example 37, 4-(4-((1R,5R,6R)-6-methoxy-3,8-diazabicyclo[3.2.1]octan-3-yl)-2-(((S)-1-methylpyrrolidin-2-yl)methoxy)-5,8-dihydropyrido[3,4-d]pyrimidin-7(6H)-yl)naphthalen-2-ol]
Kd [1]: 12.8 µM | IC50 [2]: 3.85 µM | IC50 [3]: 0.0881 µM

CO[C@@H]1C[C@@H]2CN(c3nc(OCC45CCCN4CC(F)C5)nc4c3CCN(c3cccc5cccc(Cl)c35)C4)C[C@H]1N2 (mixture of isomers) [Example 43, 7-(8-chloronaphthalen-1-yl)-2-((2-fluorotetrahydro-1H-pyrrolizin-7a(5H)-yl)methoxy)-4-((1R,5R,6R)-6-methoxy-3,8-diazabicyclo[3.2.1]octan-3-yl)-5,6,7,8-tetrahydropyrido[3,4-d]pyrimidine]
Kd [1]: 0.0576 µM | IC50 [2]: > 16.7 µM | IC50 [3]: 0.0901 µM

CN1CCC[C@H]1COc1nc2c(c(N3C[C@H]4CC[C@@H](C3)N4)n1)CCN(c1cc(O)cc3cccc(Cl)c13)C2 [Example 28, 4-(4-((1R,5S)-3,8-diazabicyclo[3.2.1]octan-3-yl)-2-(((S)-1-methylpyrrolidin-2-yl)methoxy)-5,8-dihydropyrido[3,4-d]pyrimidin-7(6H)-yl)-5-chloronaphthalen-2-ol]
Kd [1]: > 1000 µM | IC50 [2]: 0.361 µM | IC50 [3]: 0.0012 µM

CN1CCC[C@H]1COc1nc2c(c(N3C[C@@H]4C[C@H](O)[C@H](C3)N4)n1)CCN(c1cc(O)cc3ccccc13)C2 (single isomer, unassigned) [Example 55]
Kd [1]: 38.7 µM | IC50 [2]: 4.88 µM | IC50 [3]: 0.775 µM

Oc1cc(N2CCc3c(nc(OC[C@@H]4CCCN4)nc3N3C[C@H]4CC[C@@H](C3)N4)C2)c2ccccc2c1Cl [Example 27, 4-(4-((1R,5S)-3,8-diazabicyclo[3.2.1]octan-3-yl)-2-(((S)-pyrrolidin-2-yl)methoxy)-5,8-dihydropyrido[3,4-d]pyrimidin-7(6H)-yl)-1-chloronaphthalen-2-ol]
Kd [1]: 0.0913 µM | IC50 [2]: 11.1 µM | IC50 [3]: 1.6 µM

CN1CCC[C@H]1COc1nc2c(c(N3C[C@@H]4C[C@@H](O)[C@H](C3)N4)n1)CCN(c1cccc3cccc(Cl)c13)C2 [Example 95, (1S,5S,6R)-3-(7-(8-chloronaphthalen-1-yl)-2-(((S)-1-methylpyrrolidin-2-yl)methoxy)-5,6,7,8-tetrahydropyrido[3,4-d]pyrimidin-4-yl)-3,8-diazabicyclo[3.2.1]octan-6-ol]
Kd [1]: 0.0583 µM | IC50 [2]: > 16.7 µM | IC50 [3]: 0.0506 µM

CN1CCC[C@H]1COc1nc2c(c(N3C[C@H]4CC[C@@H](C3)N4)n1)CCN(c1cccc3cccc(CCC#N)c13)C2 [Example 80, 3-(8-(4-((1R,5S)-3,8-diazabicyclo[3.2.1]octan-3-yl)-2-(((S)-1-methylpyrrolidin-2-yl)methoxy)-5,8-dihydropyrido[3,4-d]pyrimidin-7(6H)-yl)naphthalen-1-yl)propanenitrile]
Kd [1]: 0.617 µM | IC50 [2]: 11.1 µM

CC(Oc1nc2c(c(N3C[C@H]4CC[C@@H](C3)N4)n1)CCN(c1cc(O)c(Cl)c3ccccc13)C2)[C@@H]1CCCN1 (stereo partly drawn) [Example 26, 4-(4-((1R,5S)-3,8-diazabicyclo[3.2.1]octan-3-yl)-2-(1-((S)-pyrrolidin-2-yl)ethoxy)-5,8-dihydropyrido[3,4-d]pyrimidin-7(6H)-yl)-1-chloronaphthalen-2-ol]
Kd [1]: 0.325 µM | IC50 [2]: > 16.7 µM
